Laboratory results taken from PMC9516332 (Frontiers in Oncology, 2022).
Like-named read-outs stand apart in the source and are kept apart here.

Legend:
134 cancer cell lines [1] = tested on: 134 cancer cell lines
AP-1060 (ETV6-NTRK3) = assay: Cell viability assay
134 cancer cell lines [2] = assay: Cell viability assay (ATPlite, 72 hours), IC50 on cancer cell line panel

## O=C(Nc1cnn2ccc(N3CCC[C@@H]3c3cc(F)ccc3F)nc12)N1CC[C@H](O)C1 [larotrectinib]
134 cancer cell lines [1]
  IC50: > 31.6 µM
AP-1060 (ETV6-NTRK3); cell viability
  potency in AP-1060 compared to entrectinib: around four-fold more potent
AP-1060 (ETV6-NTRK3); read-out: IC50 in cell proliferation assay
  IC50: 0.009 µM
134 cancer cell lines [2]; HEC-6, read-out: IC50 in cell proliferation assay, HEC-6 cell line (EGFR p.A289V)
  IC50: > 31.6 µM
134 cancer cell lines [2]; Homo sapiens, 769-P, read-out: IC50 in cell proliferation assay, cell line 769-P
  IC50: > 31.6 µM
134 cancer cell lines [2]; Homo sapiens, 786-0, read-out: IC50 in cell proliferation assay, cell line 786-O
  IC50: > 31.6 µM
134 cancer cell lines [2]; Homo sapiens, A 172, read-out: IC50 in cell proliferation assay, cell line A-172
  IC50: > 31.6 µM
134 cancer cell lines [2]; Homo sapiens, A204, read-out: IC50 in cell proliferation assay, cell line A-204
  IC50: > 31.6 µM
134 cancer cell lines [2]; Homo sapiens, A498, read-out: IC50 in cell proliferation assay, cell line A-498
  IC50: > 31.6 µM
134 cancer cell lines [2]; Homo sapiens, A549, read-out: IC50 in cell proliferation assay, cell line A-549
  IC50: > 31.6 µM
134 cancer cell lines [2]; Homo sapiens, A704, read-out: IC50 in cell proliferation assay, cell line A-704
  IC50: > 31.6 µM
134 cancer cell lines [2]; Homo sapiens, A-375, read-out: IC50 in cell proliferation assay, cell line A-375 (BRAF p.V600E)
  IC50: > 31.6 µM
134 cancer cell lines [2]; Homo sapiens, A-427, read-out: IC50 in cell proliferation assay, cell line A-427
  IC50: > 31.6 µM
134 cancer cell lines [2]; Homo sapiens, ACHN, read-out: IC50 in cell proliferation assay, cell line ACHN
  IC50: > 31.6 µM
134 cancer cell lines [2]; Homo sapiens, AN3-CA, read-out: IC50 in cell proliferation assay, cell line AN3-CA (FGFR2 p.N549K)
  IC50: > 31.6 µM
134 cancer cell lines [2]; Homo sapiens, ASPC1, read-out: IC50 in cell proliferation assay, cell line AsPC-1
  IC50: > 31.6 µM
134 cancer cell lines [2]; Homo sapiens, AU565, read-out: IC50 in cell proliferation assay, cell line AU565 (ERBB2 amplification)
  IC50: > 31.6 µM
134 cancer cell lines [2]; Homo sapiens, BT-20, read-out: IC50 in cell proliferation assay, cell line BT-20
  IC50: > 31.6 µM
134 cancer cell lines [2]; Homo sapiens, BT-474, read-out: IC50 in cell proliferation assay, cell line BT-474 (ERBB2 amplification)
  IC50: > 31.6 µM
134 cancer cell lines [2]; Homo sapiens, BT-549, read-out: IC50 in cell proliferation assay, cell line BT-549
  IC50: > 31.6 µM
134 cancer cell lines [2]; Homo sapiens, BXPC-3, read-out: IC50 in cell proliferation assay, cell line BxPC-3
  IC50: > 31.6 µM
134 cancer cell lines [2]; Homo sapiens, C-33-A, read-out: IC50 in cell proliferation assay, cell line C-33 A
  IC50: > 31.6 µM
134 cancer cell lines [2]; Homo sapiens, CAL-27, read-out: IC50 in cell proliferation assay, cell line CAL-27
  IC50: > 31.6 µM
134 cancer cell lines [2]; Homo sapiens, CCF-STTG1, read-out: IC50 in cell proliferation assay, cell line CCF-STTG1
  IC50: > 31.6 µM
134 cancer cell lines [2]; Homo sapiens, CCRF-CEM, read-out: IC50 in cell proliferation assay, cell line CCRF-CEM
  IC50: > 31.6 µM
134 cancer cell lines [2]; Homo sapiens, COLO 205, read-out: IC50 in cell proliferation assay, cell line COLO 205 (BRAF p.V600E)
  IC50: > 31.6 µM
134 cancer cell lines [2]; Homo sapiens, COLO-829, read-out: IC50 in cell proliferation assay, cell line COLO 829 (BRAF p.V600E)
  IC50: > 31.6 µM
134 cancer cell lines [2]; Homo sapiens, DLD-1, read-out: IC50 in cell proliferation assay, cell line DLD-1
  IC50: > 31.6 µM
134 cancer cell lines [2]; Homo sapiens, DU-4475, read-out: IC50 in cell proliferation assay, cell line DU4475 (BRAF p.V600E)
  IC50: > 31.6 µM
134 cancer cell lines [2]; Homo sapiens, Daoy, read-out: IC50 in cell proliferation assay, cell line Daoy
  IC50: > 31.6 µM
134 cancer cell lines [2]; Homo sapiens, DoTc2-4510, read-out: IC50 in cell proliferation assay, cell line DoTc2 4510
  IC50: > 31.6 µM
134 cancer cell lines [2]; Homo sapiens, EOL1, read-out: IC50 in cell proliferation assay, cell line EoL-1 (FIP1L1-PDGFRA)
  IC50: > 31.6 µM
134 cancer cell lines [2]; Homo sapiens, FaDu, read-out: IC50 in cell proliferation assay, cell line FaDu
  IC50: > 31.6 µM
134 cancer cell lines [2]; Homo sapiens, G-361, read-out: IC50 in cell proliferation assay, cell line G-361 (BRAF p.V600E)
  IC50: > 31.6 µM
134 cancer cell lines [2]; Homo sapiens, HCC827, read-out: IC50 in cell proliferation assay, cell line HCC827 (EGFR exon19del)
  IC50: > 31.6 µM
134 cancer cell lines [2]; Homo sapiens, HCC4006, read-out: IC50 in cell proliferation assay, cell line HCC4006 (EGFR exon19del)
  IC50: > 31.6 µM
134 cancer cell lines [2]; Homo sapiens, HCT-15, read-out: IC50 in cell proliferation assay, cell line HCT 15
  IC50: > 31.6 µM
134 cancer cell lines [2]; Homo sapiens, HCT-116, read-out: IC50 in cell proliferation assay, cell line HCT 116
  IC50: > 31.6 µM
134 cancer cell lines [2]; Homo sapiens, HEC-1, read-out: IC50 in cell proliferation assay, HEC-1 cell line
  IC50: > 31.6 µM
134 cancer cell lines [2]; Homo sapiens, HEC-1B, read-out: IC50 in cell proliferation assay, HEC-1-B cell line (EGFR p.A864V)
  IC50: > 31.6 µM
134 cancer cell lines [2]; Homo sapiens, HL-60, read-out: IC50 in cell proliferation assay, HL-60 cell line
  IC50: > 31.6 µM
134 cancer cell lines [2]; Homo sapiens, HT, read-out: IC50 in cell proliferation assay, HT cell line
  IC50: > 31.6 µM
134 cancer cell lines [2]; Homo sapiens, HT-1080, read-out: IC50 in cell proliferation assay, HT-1080 cell line
  IC50: > 31.6 µM
134 cancer cell lines [2]; Homo sapiens, Hs746T, read-out: IC50 in cell proliferation assay, Hs 746.T cell line (MET exon14skip + amplification)
  IC50: > 31.6 µM
134 cancer cell lines [2]; Homo sapiens, Hs-578T, read-out: IC50 in cell proliferation assay, Hs 578T cell line
  IC50: > 31.6 µM
134 cancer cell lines [2]; Homo sapiens, HuTu80, read-out: IC50 in cell proliferation assay, HuTu 80 cell line
  IC50: > 31.6 µM
134 cancer cell lines [2]; Homo sapiens, J82, read-out: IC50 in cell proliferation assay, J82 cell line
  IC50: > 31.6 µM
134 cancer cell lines [2]; Homo sapiens, Jurkat E6.1, read-out: IC50 in cell proliferation assay, Jurkat E6.1 cell line
  IC50: > 31.6 µM
134 cancer cell lines [2]; Homo sapiens, K562, read-out: IC50 in cell proliferation assay, K-562 cell line
  IC50: > 31.6 µM
134 cancer cell lines [2]; Homo sapiens, KATO III, read-out: IC50 in cell proliferation assay, KATO III cell line (FGFR2 amplification)
  IC50: > 31.6 µM
134 cancer cell lines [2]; Homo sapiens, KG-1, read-out: IC50 in cell proliferation assay, KG-1 cell line (FGFR1OP2-FGFR1)
  IC50: > 31.6 µM
134 cancer cell lines [2]; Homo sapiens, KLE, read-out: IC50 in cell proliferation assay, KLE cell line
  IC50: > 31.6 µM
134 cancer cell lines [2]; Homo sapiens, KMS-11, read-out: IC50 in cell proliferation assay, KMS-11 cell line (FGFR3 p.Y373C)
  IC50: > 31.6 µM
134 cancer cell lines [2]; Homo sapiens, KU812, read-out: IC50 in cell proliferation assay, Ku812 cell line
  IC50: > 31.6 µM
134 cancer cell lines [2]; Homo sapiens, Kasumi 1, read-out: IC50 in cell proliferation assay, Kasumi-1 cell line (KIT p.N822K)
  IC50: > 31.6 µM
134 cancer cell lines [2]; Homo sapiens, LC-2-ad, read-out: IC50 in cell proliferation assay, LC-2/ad cell line (CCDC6-RET)
  IC50: > 31.6 µM
134 cancer cell lines [2]; Homo sapiens, LNCaP-Clone-FGC, read-out: IC50 in cell proliferation assay, LNCaP clone FGC cell line
  IC50: > 31.6 µM
134 cancer cell lines [2]; Homo sapiens, LS174T, read-out: IC50 in cell proliferation assay, LS174T cell line
  IC50: > 31.6 µM
134 cancer cell lines [2]; Homo sapiens, LS-411N, read-out: IC50 in cell proliferation assay, LS411N cell line (BRAF p.V600E)
  IC50: > 31.6 µM
134 cancer cell lines [2]; Homo sapiens, LoVo, read-out: IC50 in cell proliferation assay, LoVo cell line
  IC50: > 31.6 µM
134 cancer cell lines [2]; Homo sapiens, MCF7, read-out: IC50 in cell proliferation assay, MCF-7 cell line
  IC50: > 31.6 µM
134 cancer cell lines [2]; Homo sapiens, MDA-MB-231, read-out: IC50 in cell proliferation assay, MDA-MB-231 cell line
  IC50: > 31.6 µM
134 cancer cell lines [2]; Homo sapiens, MDA-MB-453, read-out: IC50 in cell proliferation assay, MDA-MB-453 cell line
  IC50: > 31.6 µM
134 cancer cell lines [2]; Homo sapiens, MDA-MB-468, read-out: IC50 in cell proliferation assay, MDA-MB-468 cell line
  IC50: > 31.6 µM
134 cancer cell lines [2]; Homo sapiens, MG-63, read-out: IC50 in cell proliferation assay, MG-63 cell line
  IC50: > 31.6 µM
134 cancer cell lines [2]; Homo sapiens, MIA PaCa-2, read-out: IC50 in cell proliferation assay, MIA PaCa-2 cell line
  IC50: > 31.6 µM
134 cancer cell lines [2]; Homo sapiens, MKN-45, read-out: IC50 in cell proliferation assay, MKN45 cell line (MET amplification)
  IC50: > 31.6 µM
